Laboratory results published in patent US12691046B2, “Ester compositions” (Evonik Operations GmbH, priority 2021, dated 2026).

Key:
[1] = Pigment/powder dispersion: increase in viscosity of the oil (Brookfield); format: physicochemical; conditions: for Increase in viscosity: 60% emollient + 40% pigment/powder mixture (Table 2), Brookfield, spindle 5, 50 rpm at 20° C.; for dispersibility of the pigment/powder mixture in the oil: judged from the increase in viscosity
Excerpt: Alkyl carboxylates according to the invention can help in the wetting of hydrophobized pigments and accordingly can be widely used in coloured cosmetics. The pigment wetting properties of cosmetic oils can be determined by measuring the viscosity of the pure oil, in comparison with the viscosity of the oil after dispersing a defined amount of pigments. The smaller the increase in viscosity thus determined, the better the property of an oil in wetting pigments on the surface and accordingly in dispersing.
The viscosities of the oils before addition of the pigment/powder mixture are determined using a Brookfield viscometer, spindle 5, 50 rpm at 20° C. After dispersion of the pigment/powder mixture, the viscosity is again determined in an identical way.

[2] = Mixtures of pure pigments with cosmetic oil: increase in viscosity (rheometer); format: physicochemical; conditions: for dispersibility of pure pigments in the oil: judged from the increase in viscosity; for Increase in viscosity, Carbon Black (CI77266, UniPure Black LC 902, Sensient): pigment:oil 15:85 w/w; for Increase in viscosity, Carbon Black (CI77266, UniPure Black LC 902, Sensient) / Increase in viscosity, (Yellow) Iron Oxide (CI 77492); Dimethicone (BYO-DS4, KOBO) / Increase in viscosity, (Black) Iron Oxides (CI 77499); Dimethicone (BYO-DS3, KOBO) / Increase in viscosity, Titanium Dioxide (CI 77891); Dimethicone (DHL-TRI-77891, US Cosmetics) / Increase in viscosity, (Red) Iron Oxides (CI 77491); Dimethicone (BYO-DS3, KOBO): rheometer MCR 302, 20° C., 1/100 sec, triplicate averaged; for Increase in viscosity, (Yellow) Iron Oxide (CI 77492); Dimethicone (BYO-DS4, KOBO): pigment:oil 40:60 w/w; for Increase in viscosity, (Black) Iron Oxides (CI 77499); Dimethicone (BYO-DS3, KOBO) / Increase in viscosity, Titanium Dioxide (CI 77891); Dimethicone (DHL-TRI-77891, US Cosmetics): pigment:oil 60:40 w/w; for Increase in viscosity, (Red) Iron Oxides (CI 77491); Dimethicone (BYO-DS3, KOBO): pigment:oil 65:35 w/w
Experimental: Here too, the pigment wetting properties of cosmetic oils can be determined by measuring the viscosity of the pure oil, in comparison with the viscosity of the oil after dispersing a defined amount of the pure pigment. The smaller the increase in viscosity thus determined, the better the property of an oil in wetting pigments on the surface and accordingly in dispersing.
The mixture is then stirred for 3 min at 3,500 rpm's and placed onto rheometer for measurement (Anton Paar Modular Compact Rheometer model MCR 302, 20° C., 1/100 sec). The viscosities of the neat cosmetics oils are also measured. Pigment mixtures and neat cosmetic oils are run in triplicate and the results averaged.
The increase in viscosity comparing the neat cosmetic oil and the pigment/cosmetic oil mixture is represented below (given in mPa·s): […]

| SMILES | Increase in viscosity [1] | dispersibility of the pigment/powder mixture in the oil [1] | dispersibility of pure pigments in the oil [2] | Increase in viscosity, Carbon Black (CI77266, UniPure Black LC 902, Sensient) [2] | Increase in viscosity, (Yellow) Iron Oxide (CI 77492); Dimethicone (BYO-DS4, KOBO) [2] | Increase in viscosity, (Black) Iron Oxides (CI 77499); Dimethicone (BYO-DS3, KOBO) [2] | Increase in viscosity, Titanium Dioxide (CI 77891); Dimethicone (DHL-TRI-77891, US Cosmetics) [2] | Increase in viscosity, (Red) Iron Oxides (CI 77491); Dimethicone (BYO-DS3, KOBO) [2] |
| --- | --- | --- | --- | --- | --- | --- | --- | --- |
| CCCCCCCCCCCC(=O)OCCC(C)C [Dermofeel ® sensolv, Isoamyl Laurate] | 1820 mPa · s | improved | improved | 223 mPa·s | 195 mPa·s | 458 mPa·s | 121 mPa·s | 2238 mPa·s |
| CCCCCCCCCCCCCCCCOC(=O)C(CC)CCCC (stereo not shown) [Cetyl Ethylhexanoate] | 2520 mPa · s | improved | improved | 625 mPa·s | 2357 mPa·s | 8718 mPa·s | 807 mPa·s | 5393 mPa·s |
